One substance from patent US8518903B2, “Use of toll-like receptor-9 agonists” (University of Pittsburgh—of the Commonwealth System of …, priority 2007, dated 2013) can be followed below.

The test system of experiment [1] is enterocytes. Briefly: LPS-mediated cytokine (IL-6) release from enterocytes. The format is cell-based. As to conditions: 50 μg/ml LPS + 10 μM CpG. As for the experimental part:
FIG. 8. CpG-DNA reduces LPS-mediated cytokine release from enterocytes. Bar graph showing the level of supernatant IL-6 in enterocytes which were either untreated (“CTRL”) or treated with 50 μg/ml LPS, 50 m/ml LPS+10 μM CpG, or 10 μM CpG.

Experiment [2] has as its system murine intestinal mucosa. Briefly: LPS-dependent signaling and inflammation in the murine intestinal mucosa in vivo. Further details: species or system mouse. The conditions noted are these: LPS + CpG vs LPS. An excerpt:
FIG. 10. Experimental design to assess whether TLR9 activation affects TLR4-mediated inflammation in vivo.
(A). Western blot showing levels of signaling molecules phospho-p38 and phospho-ERK (relative to actin) in mice which were either untreated (Ctrl) or treated with LPS, LPS+CpG, or CpG. (B) Bar graph showing serum levels of the inflammatory cytokine IL-6 in mice which were either untreated (Ctrl) or treated with LPS, LPS+CpG, or CpG.
Experiments were then designed to determine whether the above phenomena, observed in vitro, could be confirmed in vivo (see FIG. 10).

Experiment [3] relates to murine model of endotoxemia. Put plainly: Enterocyte apoptosis (caspase 3) in murine model of endotoxemia. The format is in vivo, mouse. The conditions noted are these: 5 mg/kg LPS + 1 mg/kg CpG-DNA vs LPS, 3 hours. Here is the method: (A) Control mice (injected with saline). (B) Mice injected with 5 mg/kg of LPS. (C) Mice injected with 5 mg/kg of LPS and 1 mg/kg of CpG. (D-G) Immunohistochemical staining of terminal ileum from newborn mice that were either breast fed (“control”) or induced to develop NEC (“NEC”). Sections were stained for caspase 3 as a marker of apoptosis and enterocyte loss; positive staining is indicated by a small arrowhead. (D) Control injected with saline. (E) NEC injected with saline. (F) Control injected with 1 mg/kg CpG-DNA daily for four days. (G) NEC injected with 1 mg/kg CpG-DNA daily for four days. (H) Bar graph summarizing results, showing percent apoptosis in terminal ileum as depicted in (D)-(G).
Induction of necrotizing enterocolitis. All mice were housed and cared for at Rangos Research Center, Children's Hospital of Pittsburgh. All experiments were approved by the Children's Hospital of Pittsburgh Animal Care Committee and the Institutional Review Board of the University of Pittsburgh (protocol 45-06). Swiss-Webster (CfW) and C57/B1-6 mice were obtained from Jackson Laboratories (Jackson Laboratory, Bar Harbor, Me.). Endotoxemia was induced in 2 week old C57/B16 or CpG1 (TLR9-mutant) mice by the intraperitoneal injection of LPS (Escherichia coli 0111:B4 purified by gel-filtration chromatography, >99% pure, 5 mg/kg, Sigma-Aldrich, St. Louis, Mo.). […]

The test system of experiment [4] is IEC-6 enterocytes. Briefly: Assessment of NFkB activation (nuclear:cytoplasmic ratio of p65) in IEC-6 enterocytes. As to conditions: IEC-6 cells, LPS 50 μg/ml, CpG-DNA 1 μM, polymixin B 10 μg/ml, 1 hour. The format is cell-based. As for the experimental part: FIG. 21. Nuclear:cytoplasmic ratio of NFκB, indicating the extent of translocation of NFκB into the nucleus, in IEC-6 cells which were either untreated (control); treated with LPS; treated with LPS and CpG; treated with LPS, CpG and polymixin B; treated with CpG; or treated with polymixin B. The concentrations used were LPS at […] CpG-DNA at 1 μM, and polymixin B at 10 μg/ml.
Assessment of NFkB activation. IEC-6 enterocytes were treated with LPS (50 μg/ml, Sigma-Aldrich, St. Louis, Mo.) and/or CpG-DNA (1 μM) either alone or in combination for 1 hour and immunostained with antibodies against the p65 subunit of NF-κB. Quantification of nuclear translocation was performed as adapted from Ding, et al. J Biol. Chem. 1998 Oct. 30; 273(44):28897-905. […] The average NF-κB p65 intensity of the cytoplasmic area was determined by subtracting the area and integrated intensity of the nuclear ROI from the nuclear+cytoplasmic ROI and dividing the cytoplasmic integrated intensity by the cytoplasmic area. The extent of p65 staining in the nucleus versus the cytoplasm (i.e. the nuclear to cytoplasmic ratio) was calculated for each cell by dividing the nuclear average NF-κB p65 intensity by the cytoplasmic average NF-κB p65 intensity. Nuclear to cytoplasmic ratio was calculated for more than 200 cells per treatment group for more than 4 separate experiments.

As for 5′-TCCATGACGTTCCTGACGTT-3′ [CpG-DNA], in experiment [1], the “LPS-mediated cytokine release (supernatant IL-6)” value is reported as “reduces”. The “serum IL-6 level” value in experiment [2] (mice) is on record as “attenuated”. Moreover, in experiment [2] (murine intestinal mucosa), the “level of phosphorylated ERK (LPS-dependent signaling)” value is recorded as “attenuated” and the “level of phosphorylated p38 (LPS-dependent signaling)” value is listed as “attenuated”. The “apoptosis in enterocytes of terminal ileum (caspase 3)” value in experiment [3] was “substantially reduced”. The “LPS-induced translocation of NFκB into the nucleus (nuclear:cytoplasmic ratio)” value in experiment [4] is “significantly inhibited translocation”.
